Experimental data: US20130224110A1, “USE OF ADENOSINE RECEPTOR SIGNALING TO MODULATE PERMEABILITY OF BLOOD-BRAIN BARRIER” (CORNELL UNIVERSITY, priority 2010, published 2013)

What was measured:
[1] = tested on: blood brain barrier; experiment: Entry of i.v. anti-β-amyloid antibody 6E10 into brain of transgenic AD (APP/PSEN) mice after NECA; format: in vivo; settings: NECA i.v. 3 h before 6E10 i.v., brains collected after 90 min
Description: Wild type and transgenic (AD) mice were given 0.80 μg NECA (i.v.). After 3 h, 400 μg of antibody to β-amyloid (200 μl of 2 mg/ml; clone 6E10, Covance, Princeton, N.J.) was administered i.v. and the mice rested for 90 min. Mice were then anesthetized and perfused as described above and their brains were placed in OTC and flash-frozen for later sectioning. Sagital sections (6 μm) were fixed in acetone for 10 min, then washed in PBS. Sections were blocked with casein for 20 min then incubated with 1:50 dilution of goat anti-mouse IgCy5 (polyclonal, 1 mg/ml, Abcam, Cabridge, Mass.) for 20 min then washed 3 times in PBS. Sections were then dried and mounted with VectashieldHardset mounting media with DAPI (Vector Laboratories, Burlingame, Calif.). Images were obtained on a Zeiss Axio Imager M1 fluorescent microscope.
The most challenging therapeutic agents to get across the BBB are macromolecules such as antibodies, due to their enormous size (˜150 kDa). It was asked whether adenosine receptor modulation with NECA can facilitate the entry of antibodies into the CNS. To test this, a double [amyloid precursor protein (APP)/presenilin (PSEN)] transgenic mouse model of AD [strain B6.Cg-Tg(APPswe,PSEN1dE9)85Dbo/J] was used. […]

[2] = tested on: Bend.3 cells; experiment: Tight junction molecule staining (ZO-1, Claudin-5, Occludin); format: cell-based, mouse; settings: 1 μM, 1 h
Description: Bend.3 cells grown on collagen coated coverslips were incubated with DMSO vehicle, NECA (1 μM), or Lexiscan (1 μM) for 1 h. Cells were washed with PBS, fixed with 4% paraformaldehyde, and permeabilized with 0.5% Triton-X in PBS. Cells were blocked with PBS/BSA/goat serum and then stained with antibodies (Invitrogen) against either ZO-1 (1A12), Claudin-5 (34-1600), or Occludin (3F10). Following a wash step, cells were incubated with either goat anti-rabbit IgTexas Red-X or goat anti-mouse IgCy5 (Invitrogen). Cover slips were washed and mounted on slides with ProlongGold containing DAPI. Images were obtained on a Zeiss Axio Imager M1 fluorescent microscope.

[3] = tested on: CD4+ lymphocytes in the brain and spinal cord; experiment: CD4+ lymphocyte infiltration of brain and spinal cord after EAE induction (immunohistochemistry); format: in vivo; settings: wild type mice, day 15 post-EAE induction, vs DMSO
Description: Anesthetized mice were perfused with PBS, and brains, spleens, and spinal cords were isolated and snap frozen in Tissue Tek-OCT medium. Five μm sections (brains in a sagittal orientation) were affixed to Supefrost/Plus slides (Fisher), fixed in acetone, and stored at −80° C. For immunostaining, slides were thawed and treated with 0.03% H2O2 in PBS to block endogenous peroxidase, blocked with Casein (Vector) in normal goat serum (Zymed), and then incubated with anti-CD45 (YW62.3), anti-CD4 (RM4-5), or anti-ICAM-1 (3E2). Slides were incubated with biotinylated goat anti-rat Ig (Jackson ImmunoResearch) and streptavidin-HRP (Zymed) and developed with an AEC (Red) substrate kit (Zymed) and a hematoxylin counterstain. […]
As CD73 catalyzes the breakdown of AMP to adenosine and ARs are expressed in the CNS (Tsutsui et al., “A1 Adenosine Receptor Upregulation and Activation Attenuates Neuroinflammation and Demyelination in a Model of Multiple Sclerosis,” J. Neurosci. 24:1521-1529 (2004)); Rosi et al., The Influence of Brain Inflammation Upon Neuronal Adenosine A2B Receptors,” J. Neurochem. 86:220-227 (2003), which are hereby incorporated by reference in their entirety), it was next determined if AR signaling is important during EAE progression. […] Since CD73 is highly expressed on the choroid plexus (FIG. 6C), it was next determined if ARs are also expressed on the choroid plexus. […]

Row | SMILES | binding of i.v. injected 6E10 antibody to Aβ plaques in brain [1] | ZO-1 and claudin-5 expression [2] | occludin expression [2] | frequency of CD4+ lymphocytes in the brain and spinal cord [3]
1 | CCNC(=O)[C@H]1O[C@@H](n2cnc3c(N)ncnc32)[C@H](O)[C@@H]1O [NECA, 5′-N-ethylcarboxamido adenosine] | Binding of 6E10 antibody to Aβ plaques was observed throughout the brains | discreet alterations in ZO-1 and claudin-5 | severely diminished occludin expression | –
2 | Nc1nc2c(cnn2CCc2ccccc2)c2nc(-c3ccco3)nn12 [SCH58261, 2-(2-Furanyl)-7-(2-phenylethyl)-7H-pyrazolo[4,3-e][1,2,4]triazolo[1,5-c]pyrimidin-5-amine] | – | – | – | significantly lower frequency of CD4^+ lymphocytes in the brain and spinal cord
